The term melting point denotes the temperature, or range, at which the solid turns liquid.

For 64 compounds, melting point results are on record in a melting point compilation (Tetko et al.; mined from patent text by program, amines drawn as free bases though some values may be those of a salt).

Consider `Fc1cc(CC2(Cc3ccncc3)c3cccnc3-c3sccc32)ccn1` (centres undefined), for which the melting point was in the range of 192 to 193 °C.
On to `Cc1ccnc(NC(=O)C2CC2)c1[N+](=O)[O-]`, for which the melting point was determined as 179 °C.
With `O=C1CNc2ncc(I)cc2N1Cc1cc(F)c(F)cc1F`, the melting point lay within 227 to 228 °C.
Compound `Cc1ccc(C(=O)P2(=O)Oc3ccccc3-c3ccccc32)c(C)c1` (centres undefined) yielded a melting point of 166 °C.
The compound `COc1ccc(-c2c(C(=O)O)c(CSc3nccn3C)nc3cc(OC)c(OC)cc23)cc1OC` had a melting point of 213 to 214 °C.
The result for `Cn1nc(C(F)(F)F)nc1NC(=O)CCCOc1cccc(CN2CCCCC2)c1` reads 96 to 97 °C; that for `Cc1ccc(C)c(NC(=S)N2CCC(c3nc(C4=NOC(c5ccccc5)C4)cs3)CC2)c1` (centres undefined), 120 to 123 °C; that for `Cc1c(O)c(=O)ccn1CCCCCO`, 136 to 138 °C.
Compound `COc1ccc(C(O)Cc2c(Cl)cncc2Cl)cc1OC1CCCC1` (centres undefined) gave a melting point of 124 to 125 °C.
Turning to `CCCCOc1ncc(C(C)O)cc1-c1nc2c(CC)n(C3CN(CC)C3)nc2c(=O)[nH]1` (centres undefined), the melting point is 117 to 119 °C.
Consider `CC(C)(C)c1cc(OCCCCCCc2nnn[nH]2)cc(C(C)(C)C)c1`, for which the melting point fell in the range of 113 to 115 °C.
In the case of `Cc1ccc(C(=O)C2=C(O)C(=O)N(c3ccc(C(F)(F)F)cn3)C2c2ccc(C(C)C)cc2)cc1` (centres undefined), the melting point is 255 to 257 °C.
Take `CC1=C(c2ccc(Cl)cc2)n2ncc3c(=O)[nH]c(=S)n(c32)C1`: the melting point fell in the range of 283 to 285 °C.
For `CCOC(=O)NCCN1CCC(n2c(=O)[nH]c3cc(Cl)ccc32)CC1`, the melting point is 188 °C.
Turning to `COc1cccc(-c2cc3c4ccccc4ccn3n2)c1`, the melting point lay in the range of 109 to 111 °C.
As to `CC1=CCC(=Nc2cc([N+](=O)[O-])ccc2O)S1`, the melting point lay in the range of 202 to 204 °C.
The compound `CC1(C)Oc2cc3nonc3cc2[C@@H](NC(=O)Nc2ccccc2)[C@@H]1O` (relative stereo) registered a melting point of 215 to 216 °C.
`Fc1ccc(NCc2ccccc2)cc1` gave a melting point of 38 to 39 °C.
In turn, `CCN(CC)CCNC(=O)c1cc(Cl)c(N)cc1OCCCCSC` gave a melting point of 101 to 103 °C.
Take `Cc1ccccc1-c1nsc(SN)n1`: the melting point fell in the range of 110 to 112 °C.
Turning to `O=C1NC(=O)C(Cc2ccc(OCCc3nc(-c4ccccc4)oc3CO)cc2)S1` (centres undefined), the melting point is 98 to 99 °C.
The compound `CCOc1sc(C)nc1S(=O)(=O)NC(=O)Nc1nc(OC)cc(OC)n1` displayed a melting point of 140 to 143 °C.
Compound `O=C(Nc1ccc(Oc2ccccc2)cc1)N1CCN(c2ccnc3cc(Cl)ccc23)CC1` had a melting point of 159 to 161 °C.
In turn, `CCOC(=O)Cc1nnc(-c2cc3cccc(N(C)S(=O)(=O)c4cccs4)c3[nH]2)s1` came in with a melting point of 201 to 202 °C.
As to `CCCCc1nn(-c2ccc(C(F)(F)F)cn2)cc1/C=C/C(=O)OCC`, the melting point is 84 to 85 °C.
Regarding `O=c1[nH]nc(-c2ccccc2SCc2ccccc2)o1`, the melting point fell in the range of 169 to 172 °C.
The compound `ON=Cc1ccc(N2CCC3(CC2)OCCO3)cc1` showed a melting point of 151 to 152 °C.
With `O=C1NC(=S)C(=Cc2cc(O)c(O)c([N+](=O)[O-])c2)O1` the figure was 245 °C; with `O=C(O)c1cc(=O)c(Sc2ccc(Cl)cc2)co1`, 165 to 167 °C; with `O=C(O)c1ccc(OCc2ccc(F)cc2)cc1`, 109 to 110 °C.
With `CC1CN(c2ccc(Cl)cc2)N=C1NC(=O)C(F)(F)F` (centres undefined) the figure was 181 to 183 °C; with `NC(=O)N(O)CCOc1ccc2c(c1)CCN(CCCc1ccc(F)cc1)C2=O`, 138 to 140 °C; with `CCN(CC)C(=O)n1ccc(S(=O)(=O)c2cccc(F)c2F)n1`, 78 to 81 °C.
With `O=c1c2c(Br)cc(Br)cc2n(Cc2ccccc2)c(=O)n1Cc1ccccc1Cl` the figure was 202 to 205 °C; with `CNC(=O)n1c(NC(=O)c2ccc(NC(=N)N)cc2)nc2ccccc21`, 188 to 190 °C.
Consider `Cc1cc(O)nc(C=Cc2ccccc2)n1`, for which the melting point was 217 to 219 °C.
With `CC[C@H](C)CCCCCOc1ccc(C(=O)Oc2ccc(O)cc2)cc1`, the melting point was 75 °C.
In the case of `CCOC(=O)CCc1ccc(SCc2coc(/C=C/c3ccccc3)n2)cc1`, the melting point was 77 to 78 °C.
With `CCn1nc(-c2ccccc2)c(C(C)=O)c(Nc2cnccn2)c1=O`, the melting point was in the range of 229 to 230 °C.
Turning to `CC(O)c1cc(F)ccc1Oc1nc2ccc(NC(=O)Nc3cccc([N+](=O)[O-])c3)cc2cc1Cc1ccccc1` (centres undefined), the melting point is 217 to 219 °C.
With `Cc1cn2c(N)c(Cl)cc(C(=O)NCC3CCN(CC(C)C)CC3)c2n1` the figure was 216 to 219 °C; with `CCOC(=O)C(Cc1cc(OC)ccc1OC)C(C)=O` (centres undefined), 68 to 69 °C; with `Cc1cccc2c1ccc1c3occ(C)c3c(=O)oc21`, 173 to 175 °C.
`COc1ccccc1-c1cc(C(F)(F)F)nn1-c1ccc(S(N)(=O)=O)c(F)c1` had a melting point of 159 to 160 °C.
As to `COc1ccc(CCC2CN(C3=Nc4cc(F)ccc4Nc4sc(C)cc43)CCN2C)cc1` (centres undefined), the melting point was in the range of 180 to 182 °C.
With `CCOc1nnc2c3ccc(Cl)cc3c(-c3ccccc3)nn12` the figure was 226 to 228 °C; with `Cc1cc2c(c(C(C)(C)C)c1)OC(=O)C2=C1C(=O)Oc2c1cc(C)cc2C(C)(C)C`, 253 to 255 °C; with `CC(C)(C)SSc1nc2ccccc2s1`, 80 to 80.5 °C.
In turn, `CCCc1cc(C(O)=S)cc([N+](=O)[O-])c1-c1ccccc1` showed a melting point of 178 to 180 °C.
`CCOC(=O)Cc1cnc(C(C)(C)C)nc1O` returned a melting point of 98 to 102 °C.
For the compound `CCC(C)C[C@@H]1O[C@H](CC(=O)Nc2ccc(OC(F)(F)C(=O)O)cc2)C(=O)N(CC(C)(C)CO)c2ccc(Cl)cc21` (some centres undefined), the melting point was 149 to 150 °C.
In the case of `COc1ccc(C(=O)Cc2c(Cl)cccc2Cl)c2c1OCCO2`, the melting point is 154 to 155 °C.
With `COc1cc(N(C)C(=O)CN2CCN(C)CC2)ccc1N`, the melting point lay in the range of 115 to 118 °C.
`COC(=O)Cc1ccc(OCc2ccc3ccccc3n2)c(OC)c1` displayed a melting point of 69 °C.
The result for `Clc1ccc2c(c1)N(CC1CN3CCC1CC3)c1ccccc1S2` (centres undefined) reads 122 °C.
`CCOC(=O)c1cn(C)cc(-c2cccc(C(F)(F)F)c2)c1=O` came in with a melting point of 151 to 152 °C.
Turning to `Oc1nc2cccccc-2n1`, the melting point worked out at 245 °C.
The result for `C#Cc1c(-c2ccc(F)cc2)cc(C(c2ccccc2)c2ccccc2)nc1C(C)C` reads 106 to 108 °C; that for `CCOCc1nc2cnc3cccnc3c2n1Cc1ccccc1`, 118 to 119 °C; that for `COc1ccc2ccc3c(c2c1)CC(C(=O)O)CO3` (centres undefined), 165 °C.
Consider `CN(C[C@H]1CC[C@H](C#CCO)CC1)C(=O)OC(C)(C)C`, for which the melting point was 97 to 99 °C.
As to `N#CN1CCC(c2n[nH]c3cc(F)ccc23)CC1`, the melting point fell in the range of 143 to 145 °C.
For `O=C(OCC1CCC1)c1ncn2c1[C@@H]1CCCN1C(=O)c1c(Cl)cccc1-2`, the melting point lay within 204 to 205 °C.
Consider `CCOC(=O)COc1cc(C(C)(C)C)c(SC2=C(O)CC(CCc3ccc(O)cc3)(CCc3ccc(O)cc3)OC2=O)cc1C`, for which the melting point lay in the range of 162 to 163 °C.
